Test results: PMC7329864, “Role of water in cyclooxygenase catalysis and design of anti-inflammatory agents targeting two sites of the enzyme” (Scientific Reports, 2020)

Columns and labels:
COX-1 = molecular target: T1, COX-1 (Ovis aries, UniProt P05979); test: COX inhibitory enzyme immunoassay (COX-1); type: biochemical
T1 construct: purchased Cayman Chemical Co. item no; 560131
T1 sequence (P05979 25-600): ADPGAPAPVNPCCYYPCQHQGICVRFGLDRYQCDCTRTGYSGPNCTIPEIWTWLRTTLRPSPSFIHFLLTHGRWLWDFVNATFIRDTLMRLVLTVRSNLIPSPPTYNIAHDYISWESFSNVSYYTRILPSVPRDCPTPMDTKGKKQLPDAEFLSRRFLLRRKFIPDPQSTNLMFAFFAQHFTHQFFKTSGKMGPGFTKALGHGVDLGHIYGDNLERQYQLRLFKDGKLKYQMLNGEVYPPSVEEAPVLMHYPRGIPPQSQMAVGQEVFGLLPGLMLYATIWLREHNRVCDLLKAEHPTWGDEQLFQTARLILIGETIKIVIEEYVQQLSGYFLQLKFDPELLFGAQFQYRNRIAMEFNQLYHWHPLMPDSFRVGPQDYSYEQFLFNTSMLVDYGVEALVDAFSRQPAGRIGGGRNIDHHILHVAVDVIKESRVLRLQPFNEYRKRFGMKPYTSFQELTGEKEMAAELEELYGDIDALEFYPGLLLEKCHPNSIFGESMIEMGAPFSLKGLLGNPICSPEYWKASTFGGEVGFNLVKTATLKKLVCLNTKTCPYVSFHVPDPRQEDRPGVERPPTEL
Procedure: (§1) All the compounds of Fig. 9 were screened for COX-1/2 inhibitory activity in triplicate at 10^–4–10^–8 M concentration by performing enzyme immunoassays. The activity of the compounds was quantified in terms of amount of prostaglandins produced by the enzymes in the presence of different concentrations of the compound.
(§2) For studying the COX-1, COX-2 inhibitory activities of the compounds, various reagents were prepared as per the protocol of the assays. The compounds were screened in triplicate at 10^–4–10^–8 M concentration using the procedure as described in the previous report.

wt COX-2 = molecular target: T2, wt COX-2 (Homo sapiens, UniProt P35354); test: COX inhibitory enzyme immunoassay (COX-2); type: biochemical
T2 construct: purchased Cayman Chemical Co. item no; 560131
T2 sequence (P35354 18-604): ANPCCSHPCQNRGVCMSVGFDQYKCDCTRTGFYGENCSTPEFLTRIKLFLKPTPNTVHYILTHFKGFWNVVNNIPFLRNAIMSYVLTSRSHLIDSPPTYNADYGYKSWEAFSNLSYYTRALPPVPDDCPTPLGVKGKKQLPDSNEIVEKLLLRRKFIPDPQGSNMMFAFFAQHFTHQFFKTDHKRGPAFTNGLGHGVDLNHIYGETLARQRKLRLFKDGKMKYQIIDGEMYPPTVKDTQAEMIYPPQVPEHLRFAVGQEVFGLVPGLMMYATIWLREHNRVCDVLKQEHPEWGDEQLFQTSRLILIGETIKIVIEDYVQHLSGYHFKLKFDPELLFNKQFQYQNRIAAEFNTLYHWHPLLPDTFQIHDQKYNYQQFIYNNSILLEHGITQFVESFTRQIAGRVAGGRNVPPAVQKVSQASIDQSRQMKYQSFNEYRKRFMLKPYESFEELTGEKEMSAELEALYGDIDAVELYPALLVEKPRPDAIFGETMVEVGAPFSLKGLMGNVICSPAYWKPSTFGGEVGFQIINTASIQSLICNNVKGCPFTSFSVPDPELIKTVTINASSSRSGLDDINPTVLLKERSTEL
Procedure: as §1, §2

Swiss albino mice [1] = test: Formalin induced pain (flinchings), analgesic activity and mechanistic pretreatments; type: in vivo
Procedure: (§3) Since it is known to produce biphasic pain response—the neurogenic pain and the inflammatory phase, 2% formalin injection was given in the right hind paw of the animals (20 µL) and the response was quantified by counting the number of flinching after 30 min of the compound 1 treatment. The inflammatory phase has been reported in the current investigation since the cyclooxygenase inhibitors are known to ameliorate the latter phase. The involvement of cyclooxygenase and lipooxygenase pathways was studied by pretreatment with substance P and nitric oxide pathway was studied by pretreatment with L-arginine and L-NAME as previously described. Anti-inflammatory activity was examined by using carageenan induced paw edema as per the previous report.
(§4) Swiss albino mice of either sex (25–35 g) were used for determining the analgesic and anti-inflammatory activity of the compounds. The animals were maintained at 22 ± 2 °C under 12 h light/12 h dark cycle with free supply of food and water. The study was approved by the IAEC of Guru Nanak Dev University, Amritsar, Punjab, India. A total of six groups of animals with 5 animals in each group were used. The experimental procedure as described in our previous report[52],[57] was used for studying the analgesic and anti-inflammatory activity of the compounds. All the treatments were given intraperitoneally (i.p.).
Mechanistic studies. Three groups of mice with 5 animals in each group were taken for exploring the inhibition of COX and LOX and modulation of nitric oxide pathway. For COX and LOX pathways, the animals were pretreated with substance P, 30 min before administering 1. For nitric oxide pathway, animals were pretreated with nitric oxide precursor, L-arginine and NOS inhibitor, L-NAME, 30 min before administering 1. The details of the protocols are described in previous reports[52],[57].

Acute toxicity studies = type: in vivo
Procedure: Acute toxicity studies of 1 were carried out at 3 dose levels of 50 mg Kg^−1, 300 mg Kg^−1 and 2000 mg Kg^−1 by periodic monitoring for the first 24 h and daily monitoring for 14 days[56]. […] A few jumping movements were also observed. However, all these behaviours subsided after 60 min. […] Therefore, complying with the design and the results of in vitro studies, the in vivo experiments were gestured with the emergence of a new category of anti-inflammatory agents.
Acute Toxicity Studies[56]. Four groups of animals with three animals per group were taken. The first group was administered the vehicle and served as the control group, the second, third and the fourth groups were treated with 1 at doses of 50 mg Kg^−1, 300 mg Kg^−1 and 2000 mg Kg^−1, respectively. All the treatments were administered after 4 h of fasting. Thereafter, the animals were observed continuously for the first four hours and periodically for 24 h. After 14 days, one animal each in control and highest dose of 1 (2000 mg Kg^−1) was sacrificed and histological studies were conducted using H and E staining.
[56] OECD Guideline for testing of chemicals, 2001. Guideline 423: acute oral toxicity- acute toxic class method, 2001.

Swiss albino mice [2] = test: Carageenan induced paw edema, anti-inflammatory activity; type: in vivo
Procedure: as §3, §4

SMILES: O=C1NC(=O)C(=Cc2cn(CCCCCCn3c4ccccc4c(=O)c4ccccc43)c3ccccc23)C(=O)N1 [Compound 1]
- IC50 (COX-1): 60 µM
- IC50 (wt COX-2; enzyme immunoassay, screened at 10^–4–10^–8 M, average of 3 experiments, SD ± 0.5 µM): 0.06 µM
- SI (IC50(COX-1)/IC50 (COX-2) (wt COX-2; selectivity index COX-1/COX-2): 1,000
- reversal of formalin induced analgesia (Swiss albino mice [1]): 90%
- number of flinchings in neurogenic and inflammatory phase of formalin induced pain (Swiss albino mice [1]; 10 mg kg^−1, i.p., 2% formalin 30 min after treatment, comparable to indomethacin): significant decrease
- modulation (attenuation) of analgesic effect by L-NAME pretreatment (Swiss albino mice [1]; L-NAME (NOS inhibitor) 30 min before compound): did not
- modulation of analgesic effect by L-arginine pretreatment (Swiss albino mice [1]; L-arginine (NO precursor) 30 min before compound): attenuated the analgesic effect of 1 partially
- modulation of analgesic effect by Substance P pretreatment (Swiss albino mice [1]; Substance P 30 min before compound, complete reversal not evident): attenuated the analgesic effect
- histological examination of liver, kidney and myocardium (Acute toxicity studies; 2000 mg Kg^−1, after 14 days, H and E staining, a few areas of congestion in myocardium and kidney): grossly unremarkable
- mortality in acute toxicity study (Acute toxicity studies; 50, 300 and 2000 mg Kg^−1, oral, 14 days of observation): No mortality
- behavioural observations in acute toxicity study (Acute toxicity studies; first 60 min after oral administration, subsided after 60 min): excessive licking, sniffing, grooming and restless movements
- reversal of carageenan induced inflammation (Swiss albino mice [2]): 90%
- paw volume after carageenan injection (Swiss albino mice [2]; i.p., comparable to indomethacin): significant decrease
